Results: patent US20230371508A1, “COMPOSITIONS AND METHODS FOR KILLING INSECT AND NON-INSECT PESTS” (The United States of America, as represented by the …, priority 2018, published 2023)
Values after ≈ are worked out from the molar mass of the structure shown. “Also recorded” adds a separate entry of the source. Like-named read-outs stand apart in the source and are kept apart here.

What was measured:
S. invicta workers [1] = conditions: for increase of mean mortality compared with MB / mean mortality: dose 77.9 μg/ant, 24 h
Method: Fire ant bioassays were conducted in USDA, ARS Stoneville laboratory at 25° C., 80% R.H. with a 12:12 (L:D) photoperiod. Contact toxicities of MB and some compounds of formula 1 against fire ants: Topical application was used for contact toxicity bioassay. Only large workers were used for a purpose of relatively uniform body weight and ease of handling. For all compounds, acetone was used as a solvent. The solution was applied using a 0.779 μl capillary tube. Two experiments were conducted for assessing contact toxicity. […] In order to investigate the structure-activity relationship, LD50 values were also established for MB and EB. […] For each LD50 value, 5 doses of benzoates were used. Each dose was replicated 3 times. Each replicate consisted of 13 to 18 ants. Treated ants were placed in a 30-ml capped cup and dead ants were counted after 24 h.

S. invicta workers [2] = assay: Fumigant toxicity in sealed glass flask; assay type: in vivo, Solenopsis invicta; conditions: for fumigant toxicity against S. invicta (in words): in vivo; for LC50 / mortality at 1.43 µg/mL: Solenopsis invicta
Method: A 250-ml glass flask (the whole volume is 280 ml) was used to house worker ants in fumigant toxicity bioassays. Two micro-liter of acetone solution of the tested compound was applied onto a paraffin film, which was used to seal the flask with ants. The treated spot of the paraffin film faced the inside of the flask. The upper part of the flask was coated with Fluon® to prevent ants from contacting the test material. Two experiments were conducted. […] LC50 value was established using 5 dosages. Each dosage was replicated 3 times for each of 3 colonies. Each replicate consisted of 15 to 26 ants. Ants that could not stand by themselves were considered dead. Dead ants were counted after 24 h.

H. halys nymphs [3] = assay: Nymphicidal toxicity, treated filter paper in glass vial; assay type: in vivo; conditions: for LC50 (95% CL): 24 hr
Method: Toxicities of MB, some compounds of formula 1, and commercial pesticides on H. halys nymphs: The bioassays were carried out in glass vials (20 mL), following a published procedure (Nielsen, A. L., et al., J. Econ. Entomol., 101: 1439-1442 (2008)). Filter paper was cut into round shape pieces (2.4 cm diameter). 50 μL acetone solution of one derivative or commercial pesticide with different concentrations was loaded onto the filter paper evenly, and the filter paper was dried for 1 min and then put into the bottom of vial. A small piece of green bean was put on the filter paper in the vial as food source. Different stages of H. halys nymphs were introduced into the vial and capped with a cotton ball. For each stage, 30 nymphs were used for each amount. For the nymphs of the first instar, 10 nymphs were put into 1 vial. For the nymphs of the second and third instar, 5 nymphs were put into 1 vial. For the nymphs of the fourth instar, 3 nymphs were put into 1 vial. For the nymphs of the fifth instar, 2 nymphs were put into 1 vial. The mortality was assessed after 24 hr.

L. dispar larvae = assay: Larvicidal toxicity, treated filter paper in Petri dish; assay type: in vivo; conditions: for LC50 (95% CL): 1st stage larvae, 24 hr; for decreased toxicities compared with MB: from LC50 values; for larvicidal toxicity against L. dispar (in words): in vivo
Method: Toxicities of MB and some compounds of formula 1 on L. dispar larvae: The bioassays were carried out in plastic Petri dish loaded with filter paper, following a published procedure (Nielsen 2008). 600 μL acetone solution of one derivative with different concentrations was loaded onto the filter paper (90 mm diameter) evenly, and the filter paper was dried for 2 min and then put into the bottom of Petri dish. 10 L. dispar larvae were put onto the Petri dish and covered with a lid. 30 larvae were used for each amount. The mortality was assessed after 24 hr.

[4] = Release rate (evaporation from cotton ball in tube); assay type: physicochemical; conditions: room temperature, hood air flow 129 FPM
Method: Release rate: Release rate tests of selective compounds were carried out in the laboratory. 1 mL of each compound was loaded on a cotton ball in a polypropylene flex tube (1.5 mL Eppendorf micro-centrifuge tube, VWR International, Radnor, PA). The tubes were hung in the hood with air flow of 129 FPM. At 2 pm on each weekday, the tubes were weighed and recorded (Zhang, A., et al., Environ. Entomol., 37: 719-724 (2008)). Each treatment was replicated 5 times.

D. suzukii = assay: Insecticidal activity on larvae and pupae development and adult emergence in pre-infested blueberries (dip); assay type: in vivo, Drosophila suzukii; conditions: for Adults / Larvae / Pupae: pre-infested berries soaked 2 min in 1% solution, assessed after 10 days at room temperature, mean of three replicates (standard error)
Method: Impacts of MB and other compounds on D. suzukii control: To investigate the acute toxicity of some compounds of formula 1 against D. suzukii, a published procedure was followed (Cuthbertson, A. G. S., et al., Insects, 5: 488-498 (2014)). First, mixed-sex adults D. suzukii (100) were introduced into a plastic cage (30×30×30 cm) and reared on blueberries (100) for 4 days. After that, the infested blueberries were taken out from the cage. Half of the blueberries (50) were dipped in 100 mL aqueous emulsion of each compound listed in Table 1 at 1% concentration for 2 min as treatment, while the other half of the blueberries (50) were dipped in DI water for 2 min as blank control. Then the corresponding blueberries were separately taken out, placed in two different Petri dishes, and allowed to air dry for 2 h. Second, treatment and blank control blueberries were respectively stored in two plastic cups (32 oz) with closed caps and incubated at room temperature for 10 days. The emergence of adults was then subsequently assessed. The developments of larvae and pupae were further inspected by dissection of the treatment and blank control berries. Each treatment and blank control was repeated three times.

H. halys eggs = assay: Ovicidal toxicity, direct spray on eggs; assay type: in vivo; conditions: eggs sprayed, 10 days
From the text: (§1) Ovicidal toxicities of MB and some compounds of formula 1: The aqueous solutions of one of the compounds of formula 1 with designated concentrations with different concentrations of active ingredient (AI) were separately stored in glass spray bottles according to a published procedure (Cuthbertson 2014). The eggs (10 for H. halys and 100 for P. xylostella) were laid on filter papers in Petri dishes. Different aqueous insecticidal solutions were sprayed on the surfaces of different eggs three times (˜0.5 mL) to completely cover the treatment areas. Then the Petri dishes were covered with lids and maintained in a fume hood for 10 days. The Petri dishes were then inspected for presence of nymph/larvae development or numbers of unhatched eggs.

[5] = Sigma-Aldrich SDS; cited from earlier work
H. halys nymphs [6] = conditions: 24 hr, copied from previous research, cited from earlier work
Plutella xylostella eggs = assay: Ovicidal toxicity, direct spray on eggs; assay type: in vivo; conditions: hatchability after 10 days; 0.05% and 0.1% concentrations (FIG. 3)
From the text: as §1

[7] = 24 h, read-out: mean LC50 value, mean over colonies, 24 h
[8] = 24 h, read-out: mean mortality, dosage 1.43 μg/ml, 24 h

| SMILES | LD50 (S. invicta workers [1]; colony 1, 24 h) [μg/ant] | LD50 (S. invicta workers [1]; colony 2, 24 h) [μg/ant] | LD50 (S. invicta workers [1]; colony 3, 24 h) [μg/ant] | increase of mean mortality compared with MB (S. invicta workers [1]) [times] | mean mortality (S. invicta workers [1]) [%] | fumigant toxicity against S. invicta (in words) (S. invicta workers [2]) | LC50 (95% CL) (H. halys nymphs [3]; 2nd stage nymphs) | LC50 (95% CL) (L. dispar larvae) | decreased toxicities compared with MB (L. dispar larvae) [%] | first order evaporation rate constant k (exponent of fitted curve) [4] | Adults (D. suzukii) | Larvae (D. suzukii) | Pupae (D. suzukii) | LC50 (95% CL) (H. halys eggs) | LC50 (S. invicta workers [2]; 24 h, colony 1, 24 h) [µg/mL] | LC50 (S. invicta workers [2]; 24 h, colony 2, 24 h) [µg/mL] | LC50 (S. invicta workers [2]; 24 h, colony 3, 24 h) [µg/mL] | LC50 (S. invicta workers [2]; [7]) [µg/mL] | mortality at 1.43 µg/mL (S. invicta workers [2]; [8]) [%] | hazard according to Safety Data Sheet (SDS) from the producer [5] | other results |
| --- | --- | --- | --- | --- | --- | --- | --- | --- | --- | --- | --- | --- | --- | --- | --- | --- | --- | --- | --- | --- | --- |
| COC(=O)c1ccccc1OC [M2MOB, methyl 2-methoxybenzoate] | 67.73 | 96.43 | 78.34 | 7 | 55.74 | significantly reduced | 1.530 (1.309-1.951) μL/vial | 0.230 (0.170-0.294) mg/cm^2 | 50 | 8E-04 | 0 | 0 | 0 | 0.011 (0.006-0.015) mg/cm^2 |  |  |  |  |  |  |  |
| COC(=O)c1cccc(OC)c1 [M3MOB, methyl 3-methoxybenzoate] | 112.72 | 81.78 | 47.52 | 6 | 47.23 |  |  | 0.234 (0.216-0.258) mg/cm^2 | 50 |  | 0 | 0 | 0 | 0.016 (0.008-0.026) mg/cm^2 | 0.64 (≈ 3.85 µM) | 0.54 (≈ 3.25 µM) | 0.65 (≈ 3.91 µM) | 0.61 (≈ 3.67 µM) | ~100 | not even considered as a hazardous substance | LC50 (95% CL) (H. halys nymphs [3]; 3rd stage nymphs): 1.509 (1.322-1.792) μL/vial |
| COC(=O)c1ccccc1 [MB, methyl benzoate] | 149.39 | 93.65 | 128.45 |  | 7.67 | powerful fumigant toxicities |  | 0.114 (0.091-0.134) mg/cm^2 |  | 0.162 | 0 | 0 | 0 | 0.020 (0.012-0.026) mg/cm^2 |  |  |  |  |  |  | LC50 (S. invicta workers [2]; 24 h, colony 1, 24 h, read-out: LC50): 0.77 µg/mL (≈ 5.66 µM); LC50 (S. invicta workers [2]; 24 h, colony 2, 24 h, read-out: LC50): 0.66 µg/mL (≈ 4.85 µM); LC50 (S. invicta workers [2]; 24 h, colony 3, 24 h, read-out: LC50): 0.82 µg/mL (≈ 6.02 µM); mortality at 1.43 µg/mL (S. invicta workers [2]; 24 h, dosage 1.43 μg/ml, 24 h, read-out: mean mortality): ~100%; LC50 (S. invicta workers [2]; 24 h, mean over colonies, 24 h, read-out: mean LC50 value): 0.75 µg/mL (≈ 5.51 µM); mean mortality (S. invicta workers [2]; dosage 1.43 μg/ml, 24 h): 100%; LC50 (95% CL) (H. halys nymphs [6]; 1st stage nymphs): 1.03 (0.93-1.10) μL/vial; LC50 (95% CL) (H. halys nymphs [6]; 2nd stage nymphs): 1.01 (0.86-1.12) μL/vial; LC50 (95% CL) (H. halys nymphs [6]; 3rd stage nymphs): 1.23 (1.12-1.33) μL/vial; LC50 (95% CL) (H. halys nymphs [6]; 4th stage nymphs): 2.39 (2.19-2.60) μL/vial; LC50 (95% CL) (H. halys nymphs [6]; 5th stage nymphs): 1.77 (1.60-1.93) μL/vial |
| C=COC(=O)c1ccccc1 [VB, vinyl benzoate] |  |  |  |  |  | powerful fumigant toxicities | 1.131 (0.757-1.337) μL/vial | 0.065 (0.059-0.071) mg/cm^2 |  |  | 0 | 0 | 0 | 0.017 (0.010-0.024) mg/cm^2 | 0.95 (≈ 6.41 µM) | 0.77 (≈ 5.2 µM) | 0.96 (≈ 6.48 µM) | 0.89 (≈ 6.01 µM) | ~100 |  | larvicidal toxicity against L. dispar (in words) (L. dispar larvae): highest larvicidal toxicity; times more toxic than commercial pesticide acetamiprid (L. dispar larvae; ratio of LC50 values): 3.4 times; times more toxic than commercial pesticide pyriproxyfen (L. dispar larvae; ratio of LC50 values): 1.3 times; ovicidal toxicity against P. xylostella eggs (in words) (Plutella xylostella eggs): highest toxicity |
| CCCCCCOC(=O)c1ccccc1 [nHB, n-hexyl benzoate] | 37.1 | 42.23 | 28.64 |  |  |  |  |  |  |  | 33.7(7.4) | 7.0(1.0) | 40.3(7.0) |  |  |  |  |  |  | neither known OSHA hazards nor aquatic toxicity | contact toxicity against S. invicta (in words) (S. invicta workers [1]; in vivo): comparable results; also recorded: potent contact toxicities; toxicity against H. halys nymphs (in words) (H. halys nymphs [3]; in vivo): did not show toxicities; larvicidal toxicity against L. dispar (in words) (L. dispar larvae): did not show any toxicities; insecticidal toxicity against D. suzukii (in words) (D. suzukii; 1% concentration on 4 days pre-infested blueberries, 10 days incubation): did not show any insecticidal activities |
